“And” between values parts separate entries of the source, which are not always exact repeats. Identical values can stand only once.
Key:
[1] = previously shown; cited from earlier work
5/6 nephrectomy rats [2] = assay: Proteinuria, 24-hour urine collection (total protein, urine protein/creatinine) in CKD rats; assay type: in vivo, Sprague-Dawley rats
Source text: (§1) For induction of CKD via nephron mass reduction, Sprague-Dawley rats underwent partial left nephrectomy followed by total right nephrectomy one week later. CKD rats were then randomized to 1% THC diet with polyenylphosphatidylcholine (PPC, 3 g/1000 kcal) vs. regular chow. […] Tail blood pressure measurement and 24-hour urine collection were done within a week of study termination. After 9 weeks on special diet, blood and kidneys were collected for biochemical and histologic analyses.
(§2) After 24 hours the rats were analyzed for proteinuria, Galectin-3, and C-reactive protein. Galectin-3 is a marker for cardiac fibrosis, and C-reactive protein is correlated with inflammation. Furthermore, a blood urea nitrogen test (BUN) was carried out with a creatinine and creatinine clearance blood test to evaluate the kidney functions and to look for nephrotoxicity.

5/6 nephrectomy rats [3] = assay: Heart weight normalized to body weight (cardiac hypertrophy) in CKD rats; assay type: in vivo, Sprague-Dawley rats
Procedure: (§3) The experimental groups included healthy controls, CTL n=5, non-treated CKD, n=6 and CKD/THC n=6. At time of randomization to regular chow vs. THC diet, average blood urea nitrogen (BUN) was similar between the CKD groups (63.5+10.5 vs. 66+16.5 mg/dL).
(§4) After inducing chronic kidney disease, the rats were then treated with a pharmaceutical formulation comprising tetrahydrocurcumin, or with a pharmaceutical formulation that had both tetrahydrocurcumin and curcumin. The control group consisted of five rats, ([…]), the rats with CKD (rat number 4, 15, 20, 23, 25, 31), rats with chronic kidney disease treated with tetrahydrocurcumin (rat number 8, 11, 12, 14, 19, 21, 18 and 27) and rats treated with a combination of tetrahydrocurcumin and curcumin (rat number 1, 2, 16, 24, 28, 7, 17, 29 and 30). The measurements for the average BUN, blood pressure, body weight, delta BUN, Hgb, and Heart weight/body weight for the four groups are shown in FIGS. 2A-2G.

5/6 nephrectomy rats [4] = assay: Galectin-3 (marker for cardiac fibrosis) in CKD rats; assay type: in vivo, Sprague-Dawley rats
Procedure: as §2

5/6 nephrectomy rats [5] = assay: Blood urea nitrogen (BUN), creatinine and creatinine clearance blood tests (kidney function) in CKD rats; assay type: in vivo, Sprague-Dawley rats; parameters: Change in BUN: unit not given here
Source text: as §1, §2
The blood urea nitrogen test (BUN) is primarily used with the creatinine test to evaluate kidney function and to help diagnose kidney disease. […] Therefore the pharmaceutical formulations comprising tetrahydrocurcumin with or without curcumin can be used to treat hypertension.

5/6 nephrectomy rats [6] = assay: Plasma C-reactive protein (CRP, inflammation) in CKD rats; assay type: in vivo, Sprague-Dawley rats
Source text: as §1, §2

5/6 nephrectomy rats [7] = assay: Tail blood pressure measurement in 5/6 nephrectomy CKD rats; assay type: in vivo, Sprague-Dawley rats; parameters: Diastolic tail BP: unit not given here
Source text: as §1
Rats were induced to have chronic kidney disease via nephron mass reduction, Sprague-Dawley rats underwent partial left nephrectomy followed by total right nephrectomy one week later. CKD rats were then randomized to 1% THC diet with polyenylphosphatidylcholine (PPC, 3 g/1000 kcal) vs. regular chow. The rats were then administered a dose of Buprenex, a narcotic, that can cause kidney damage.
as §4

5/6 nephrectomy rats [8] = assay: Kidney fibrosis, image quantitative analysis of Trichrome stained kidney slides in CKD rats; assay type: in vivo, Sprague-Dawley rats; details: for Kidney slides Trichrome stain, Relative % area fibrosis: Table 10, relative to CTL Ave 1
Source text: as §1, §3

[9] = high dosages; cited from earlier work
[10] = at acidic and at physiological pH; cited from earlier work
[11] = Table 1, CKD/THC group n = 6, mean ± S.D.
[12] = group AVE, CKD rats treated with THC
[13] = individual rats (Rat#), CKD rats treated with THC
[14] = Table 4, group AVE (THC 8 rats, THC/curcumin 9 rats)
[15] = Table 7, individual CKD rats, incl. rats 22 and 26
[16] = Table 1, CKD/THC group n = 6, 1% THC diet with PPC, 9 weeks, mean ± S.D.

Compound: COc1cc(CCC(=O)CC(=O)CCc2ccc(O)c(OC)c2)ccc1O [THC, tetrahydrocurcumin]
- Increase of plasma levels on co-administration with a lipid carrier such as PPC [1]: 5 fold
- Proteinuria decreased compared to non-treated CKD animals (5/6 nephrectomy rats [2]; CKD/THC group, significantly decreased): ~50%
- Urine protein/creatinine (5/6 nephrectomy rats [2]; [11]): 47.91 ± 15.42 mg/g
- 24 hr total proteinuria (5/6 nephrectomy rats [2]; Table 3, individual CKD rats): 638.5 mg and 612.7 mg and 355.6 mg and 537.7 mg and 613.8 mg and 410.1 mg
- Uprot/Cr ratio (5/6 nephrectomy rats [2]; Table 3, individual CKD rats): 63.18 mg/g and 64.86 mg/g and 30.56 mg/g and 46.32 mg/g and 43.50 mg/g and 37.43 mg/g
- 24 hr total proteinuria (5/6 nephrectomy rats [2]; Table 5, group AVE): 528.07 mg
- 24 hr total proteinuria (5/6 nephrectomy rats [2]; Table 5, individual CKD rats): 638.50 mg and 612.75 mg and 355.61 mg and 537.69 mg and 613.82 mg and 410.08 mg
- 24 hr total proteinuria (5/6 nephrectomy rats [2]; [12]): 526.15 mg
- Uprot/Cr ratio (5/6 nephrectomy rats [2]; [12]): 47.91 mg/g
- 24 hr total proteinuria (5/6 nephrectomy rats [2]; [13]): 638.50 mg and 612.75 mg and 355.61 mg and 613.82 mg and 410.08 mg
- Uprot/Cr ratio (5/6 nephrectomy rats [2]; [13]): 63.18 mg/g and 64.86 mg/g and 30.56 mg/g and 43.50 mg/g and 37.43 mg/g
- Heart wet weight normalized to body weight (5/6 nephrectomy rats [3]; [11]): 3.89 ± 0.61 g/kg
- Heart wt (5/6 nephrectomy rats [3]; [14]): 1.068 g
- Heart wt/body wt (5/6 nephrectomy rats [3]; [14]): 4.16 g/kg
- Heart wt (5/6 nephrectomy rats [3]; Table 4, individual CKD rats): 1.169 g and 0.972 g and 1.165 g and 1.035 g and 0.854 g and 0.830 g and 1.530 g and 0.989 g
- Heart wt/body wt (5/6 nephrectomy rats [3]; Table 4, individual CKD rats): 4.68 g/kg and 3.61 g/kg and 4.59 g/kg and 4.33 g/kg and 3.42 g/kg and 3.22 g/kg and 5.63 g/kg and 3.80 g/kg
- Heart wt (5/6 nephrectomy rats [3]; Table 8, group AVE of 6 rats): 0.997 g
- Heart wt/body wt (5/6 nephrectomy rats [3]; Table 8, group AVE of 6 rats): 3.89 g/kg
- Heart wt (5/6 nephrectomy rats [3]; Table 8, individual CKD rats): 1.169 g and 0.972 g and 1.165 g and 0.854 g and 0.830 g and 0.989 g
- Heart wt/body wt (5/6 nephrectomy rats [3]; Table 8, individual CKD rats): 4.68 g/kg and 3.61 g/kg and 4.59 g/kg and 3.42 g/kg and 3.22 g/kg and 3.80 g/kg
- Galectin-3 (5/6 nephrectomy rats [4]; Table 3, individual CKD rats): 285.96 ng/mL and 450.48 ng/mL and 436.37 ng/mL and 768.79 ng/mL and 273.14 ng/mL and 182.38 ng/mL
- Galectin-3 (5/6 nephrectomy rats [4]; Table 6, group AVE): 442.95 ng/mL
- Galectin-3 (5/6 nephrectomy rats [4]; Table 6, individual CKD rats): 285.96 ng/mL and 450.48 ng/mL and 436.37 ng/mL and 768.79 ng/mL and 273.14 ng/mL
- Galectin-3 (5/6 nephrectomy rats [4]; [12]): 390.94 ng/mL
- Galectin-3 (5/6 nephrectomy rats [4]; [13]): 285.96 ng/mL and 450.48 ng/mL and 436.37 ng/mL
- BUN lower at termination compared to the non-treated CKD group (5/6 nephrectomy rats [5]; CKD/THC group, 1% THC diet with PPC, 9 weeks, significantly lower): about 40%
- BUN at termination (5/6 nephrectomy rats [5]; [11]): 52.1 ± 19.1 mg/dL
- Plasma creatinine (5/6 nephrectomy rats [5]; [11]): 1.04 ± 0.22 mg/dL
- Terminal BUN (5/6 nephrectomy rats [5]; Table 3, individual CKD rats): 44.9 mg/dL and 60.3 mg/dL and 80.6 mg/dL and 107.7 mg/dL and 69.9 mg/dL and 32.1 mg/dL and 32.6 mg/dL and 201.8 mg/dL and 62.3 mg/dL
- Terminal Cr (5/6 nephrectomy rats [5]; Table 3, individual CKD rats): 0.76 mg/dL and 1.28 mg/dL and 1.25 mg/dL and 1.48 mg/dL and 1.19 mg/dL and 1.13 mg/dL and 1.01 mg/dL and 2.30 mg/dL and 0.81 mg/dL
- CrCL (5/6 nephrectomy rats [5]; Table 3, individual CKD rats, creatinine clearance): 3.71 mL/min/kg and 1.90 mL/min/kg and 2.56 mL/min/kg and 2.27 mL/min/kg and 3.46 mL/min/kg and 2.91 mL/min/kg
- Change in BUN (5/6 nephrectomy rats [5]; [14]): −6.0
- Terminal BUN (5/6 nephrectomy rats [5]; [14]): 61.3 mg/dL
- Terminal BUN (5/6 nephrectomy rats [5]; Table 4, individual CKD rats): 44.9 mg/dL and 60.3 mg/dL and 80.6 mg/dL and 107.7 mg/dL and 32.1 mg/dL and 32.6 mg/dL and 69.9 mg/dL and 62.3 mg/dL
- Change in BUN (5/6 nephrectomy rats [5]; Table 4, individual CKD rats, terminal minus randomization): −13.6 and −6.2 and −15.9 and 31.6 and −28.7 and −14.7 and 3.4 and −4.3
- CrCL (5/6 nephrectomy rats [5]; Table 6, group AVE): 2.80 mL/min/kg
- Terminal Cr (5/6 nephrectomy rats [5]; Table 6, group AVE): 1.11 mg/dL
- Terminal Cr (5/6 nephrectomy rats [5]; Table 6, individual CKD rats): 0.76 mg/dL and 1.28 mg/dL and 1.25 mg/dL and 1.48 mg/dL and 1.13 mg/dL and 1.01 mg/dL and 1.19 mg/dL and 0.81 mg/dL
- CrCL (5/6 nephrectomy rats [5]; Table 6, individual CKD rats, creatinine clearance): 3.71 mL/min/kg and 1.90 mL/min/kg and 2.56 mL/min/kg and 2.27 mL/min/kg and 3.46 mL/min/kg and 2.91 mL/min/kg
- Terminal BUN (5/6 nephrectomy rats [5]; [15]): 44.9 mg/dL and 60.3 mg/dL and 80.6 mg/dL and 107.7 mg/dL and 69.9 mg/dL and 32.1 mg/dL and 32.6 mg/dL and 201.8 mg/dL and 62.3 mg/dL
- Terminal Cr (5/6 nephrectomy rats [5]; [15]): 0.8 mg/dL (2×) and 1.3 mg/dL and 1.2 mg/dL (2×) and 1.5 mg/dL and 1.1 mg/dL and 1.0 mg/dL and 2.3 mg/dL
- Change in BUN (5/6 nephrectomy rats [5]; Table 8, group AVE of 6 rats): −13.9
- Terminal BUN (5/6 nephrectomy rats [5]; Table 8, group AVE of 6 rats): 52.1 mg/dL
- Change in BUN (5/6 nephrectomy rats [5]; Table 8, individual CKD rats): −13.6 and −6.2 and −15.9 and −28.7 and −14.7 and −4.3
- Terminal BUN (5/6 nephrectomy rats [5]; Table 8, individual CKD rats): 44.9 mg/dL and 60.3 mg/dL and 80.6 mg/dL and 32.1 mg/dL and 32.6 mg/dL and 62.3 mg/dL
- CrCL (5/6 nephrectomy rats [5]; [12]): 2.91 mL/min/kg
- Terminal sCr (5/6 nephrectomy rats [5]; [12]): 1.04 mg/dL
- CrCL (5/6 nephrectomy rats [5]; [13]): 3.71 mL/min/kg and 1.90 mL/min/kg and 2.56 mL/min/kg and 3.46 mL/min/kg and 2.91 mL/min/kg
- CRP (5/6 nephrectomy rats [6]; Table 3, individual CKD rats): 2.53 mg/mL and 3.22 mg/mL and 2.15 mg/mL and 4.38 mg/mL and 2.70 mg/mL and 3.43 mg/mL and 2.36 mg/mL and 1.19 mg/mL and 2.57 mg/mL
- CRP (5/6 nephrectomy rats [6]; Table 6, group AVE): 2.92 mg/mL
- CRP (5/6 nephrectomy rats [6]; Table 6, individual CKD rats): 2.53 mg/mL and 3.22 mg/mL and 2.15 mg/mL and 4.38 mg/mL and 3.43 mg/mL and 2.36 mg/mL and 2.70 mg/mL and 2.57 mg/mL
- CRP (5/6 nephrectomy rats [6]; [12]): 2.71 mg/mL
- CRP (5/6 nephrectomy rats [6]; [13]): 2.53 mg/mL and 3.22 mg/mL and 2.15 mg/mL and 3.43 mg/mL and 2.36 mg/mL and 2.57 mg/mL
- Diastolic blood pressure (5/6 nephrectomy rats [7]; [16]): 75.8 ± 12.8 mmHg
- Systolic blood pressure (5/6 nephrectomy rats [7]; [16]): 116.5 ± 11.1 mmHg
- Diastolic tail BP (5/6 nephrectomy rats [7]; Table 5, group AVE): 76.3
- Systolic tail BP (5/6 nephrectomy rats [7]; Table 5, group AVE): 117.4 mmHg
- Diastolic tail BP (5/6 nephrectomy rats [7]; Table 5, individual CKD rats): 95 and 69 and 60 and 78 and 81 and 67 and 77 and 83
- Systolic tail BP (5/6 nephrectomy rats [7]; Table 5, individual CKD rats): 132 mmHg and 103 mmHg and 124 mmHg (2×) and 116 mmHg and 113 mmHg and 106 mmHg and 121 mmHg
- Diastolic tail BP (5/6 nephrectomy rats [7]; [12]): 75.8
- Diastolic tail BP (5/6 nephrectomy rats [7]; individual rats (Rat#), 5/6 nephrectomy CKD rats treated with THC): 95 and 69 and 60 and 81 and 67 and 83
- Kidney fibrosis from Trichrome stained slides: relative % area (5/6 nephrectomy rats [8]; Table 1, CKD/THC group n = 6, mean ± S.D., CTL = 1): 1.16 ± 0.24 relative % area
- Kidney slides Trichrome stain, Relative % area fibrosis (5/6 nephrectomy rats [8]; group Ave): 1.1551
- Kidney slides Trichrome stain, Relative % area fibrosis (5/6 nephrectomy rats [8]; individual kidneys): 1.396 and 1.321 and 1.345 and 0.8958 and 1.146 and 0.8269
- Dosage at which relatively safe [9]: 80 mgs/kg body weight
- Solubility in water [10]: poor solubility

From patent US10781158B2, “Methods of protecting an organ using tetrahydrocurcumin and phosphatidylcholine” (Bhupinder Singh, priority 2014, dated 2020)
